Assay results: patent publication US11058688B2, “Imidazopiperazine inhibitors of transcription activating proteins” (Board of Regents, The University of Texas System, priority 2018, dated 2021)

Legend:
[1] = molecular target: GST-CBP(1081-1197) bromodomain (Homo sapiens (Human), UniProt Q92793); test: CBP AlphaScreen Assay; settings: binding to biotin-H4(1-21) Ac-K5/8/12/16 peptide
Description: (§1) Specific binding of the CBP or BRD4 bromodomain to the acetylated peptide derived from the H4 histone substrate (tetra acetylated H4(1-21) Ac-K5/8/12/16) was measured in absence or presence of inhibitors.
(§2) The standard dose response curves were fitted by Genedata Screener software using the variable-slope model: Signal=Signalnegative control+(SignalDMSO control−Signalnegative control)/(1+(IC50/Dose)^Hill slope).
(§3) Only Signal and Dose in the equation were treated as known values.

BRD4(49-170) bromodomain = BRD4(49-170) bromodomain (Homo sapiens (Human), UniProt O60885); test: BRD4 AlphaScreen Assay; settings: binding to biotin-H4(1-21) Ac-K5/8/12/16 peptide
Description: as §1, §2, §3

Sequence of GST-CBP(1081-1197) bromodomain (Q92793 1081-1197): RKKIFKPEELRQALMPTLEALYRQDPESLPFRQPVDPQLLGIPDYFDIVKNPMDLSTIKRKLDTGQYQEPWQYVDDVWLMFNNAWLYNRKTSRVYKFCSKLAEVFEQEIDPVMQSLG

| SMILES | IC50 [1] | IC50 (BRD4(49-170) bromodomain) |
| --- | --- | --- |
| CNC(=O)N1CCn2c(C3CC(F)(F)C3)nc(-c3cccc4nc(-c5cnn(C)c5)c(C#N)cc34)c2C1 [Example 67, 1-(3-cyano-2-(1-methyl-1H-pyrazol-4-yl)quinolin-5-yl)-3-(3,3-difluorocyclobutyl)-N-methyl-5,6-dihydroimidazo[1,5-a]pyrazine-7(8H)-carboxamide] | 0.036 µM | > 25 µM |
| CC(=O)N1CCn2c(C3CC3)nc(N3CCCc4cc(-c5cnn(CCN6CCOCC6)c5)ccc43)c2C1 [Example 122, 1-(3-cyclopropyl-1-(6-(1-(2-morpholinoethyl)-1H-pyrazol-4-yl)-3,4-dihydroquinolin-1(2H)-yl)-5,6-dihydroimidazo[1,5-a]pyrazin-7(8H)-yl)ethan-1-one] | 0.5 µM | > 25 µM |
| CNC(=O)N1CCn2c(C3CC3)nc(-c3ccc4c(c3)c(-c3cnn(C)c3)nn4C)c2C1 [Example 105, 3-cyclopropyl-N-methyl-1-(1-methyl-3-(1-methyl-1H-pyrazol-4-yl)-1H-indazol-5-yl)-5,6-dihydroimidazo[1,5-a]pyrazine-7(8H)-carboxamide] | 0.015 µM | 7.53 µM |
| CC(=O)N1CCn2c(C3CCS(=O)(=O)CC3)nc(-c3ccc4c(c3)c(-c3cnn(C)c3)nn4C)c2C1 [Example 14, 1-[3-(1,1-Dioxothian-4-yl)-1-[1-methyl-3-(1-methylpyrazol-4-yl)indazol-5-yl]-6,8-dihydro-5H-imidazo[1,5-a]pyrazin-7-yl]ethanone] | 0.286 µM | > 25 µM |
| CC(=O)N1CCn2c(C3CC3)nc(-c3ccc4c(c3)c(-c3cn(C)nc3C)nn4C)c2C1 [Example 106, 1-(3-cyclopropyl-1-(3-(1,3-dimethyl-1H-pyrazol-4-yl)-1methyl-1H-indazol-5-yl)-5,6-dihydroimidazo[1,5-a]pyrazin-7(8H)-yl)ethan-1-one] | 0.286 µM | > 25 µM |
| CC(=O)N1CCn2c(C3CN(C)C3)nc(-c3ccc4c(c3)c(-c3cnn(C)c3)nn4C)c2C1 [Example 13, 1-(1-(1-Methyl-3-(1-methyl-1H-pyrazol-4-yl)-1H-indazol-5-yl)-3-(1-methylazetidin-3-yl)-5,6-dihydroimidazo[1,5-a]pyrazin-7(8H)-yl)ethanone] | 1.38 µM | > 10 µM |
| CC(=O)N1CCn2c(C3CC3)nc(N3CCCc4cc(-c5c(C)noc5C)ccc43)c2C1 [Example 111, 1-(3-cyclopropyl-1-(6-(3,5-dimethylisoxazol-4-yl)-3,4-dihydroquinolin-1(2H)-yl)-5,6-dihydroimidazo[1,5-a]pyrazin-7(8H)-yl)ethan-1-one] | 1.45 µM | 10.3 µM |
| COc1ccc(-c2nc(C3CC3)n3c2CN(C(C)=O)CC3)cc1OC [Example 42, 1-(3-cyclopropyl-1-(3,4-dimethoxyphenyl)-5,6-dihydroimidazo[1,5-a]pyrazin-7(8H)-yl)ethan-1-one] | 4.26 µM | > 25 µM |
| CC(=O)N1CCn2c(C3CC3)nc(-c3ccc4c(c3)c(-c3cnn(C)c3)nn4C)c2C1 [Example 1, 1-(3-cyclopropyl-1-(1-methyl-3-(1-methyl-1H-pyrazol-4-yl)-1H-indazol-5-yl)-5,6-dihydroimidazo[1,5-a]pyrazin-7(8H)-yl)ethan-1-one] | 0.047 µM | > 10 µM |
| CNC(=O)N1CCn2c(C3CCOCC3)nc(-c3c(F)ccc4cc(-c5cnc(C)s5)ncc34)c2C1 [Example 89, 1-(7-fluoro-3-(2-methylthiazol-5-yl)isoquinolin-8-yl)-N-methyl-3-(tetrahydro-2H-pyran-4-yl)-5,6-dihydroimidazo[1,5-a]pyrazine-7(8H)-carboxamide] | 0.002 µM | 6.84 µM |
| CC(=O)N1CCn2c(C3CC3)nc(N3CCCc4cc(-c5cccc(S(N)(=O)=O)c5)ccc43)c2C1 [Example 120, 3-(1-(7-acetyl-3-cyclopropyl-5,6,7,8-tetrahydroimidazo[1,5-a]pyrazin-1-yl)-1,2,3,4-tetrahydroquinolin-6-yl)benzenesulfonamide] | 0.358 µM | > 25 µM |
| CNC(=O)N1CCn2c(C3CCC(F)(F)CC3)nc(-c3cccc4cc(C5CCOCC5)ncc34)c2C1 [Example 84, 3-(4,4-difluorocyclohexyl)-N-methyl-1-(3-(tetrahydro-2H-pyran-4-yl)isoquinolin-8-yl)-5,6-dihydroimidazo[1,5-a]pyrazine-7(8H)-carboxamide] | 0.004 µM | 12.1 µM |
| CNC(=O)N1CCn2c(C3CC3)nc(-c3csc4cc(-c5cnn(C)c5)ncc34)c2C1 [Example 39, 3-Cyclopropyl-N-methyl-1-(6-(1-methyl-1H-pyrazol-4-yl)thieno[3,2-c]pyridin-3-yl)-5,6-dihydroimidazo[1,5-a]pyrazine-7(8H)-carboxamide] | 0.033 µM | 14.8 µM |
| CC(=O)N1CCn2c(C3CCOC3)nc(-c3ccc4c(c3)c(-c3cnn(C)c3)nn4C)c2C1 (stereo not shown) [Example 45, 1-(1-(1-methyl-3-(1-methyl-1H-pyrazol-4-yl)-1H-indazol-5-yl)-3-(tetrahydrofuran-3-yl)-5,6-dihydroimidazo[1,5-a]pyrazin-7(8H)-yl)ethan-1-one] | 0.124 µM | 6.29 µM |
| CNC(=O)N1CCn2c(C3CCN(C)CC3)nc(-c3ccc4c(c3)c(-c3cnn(C)c3)nn4C)c2C1 [Example 56, N-methyl-1-(1-methyl-3-(1-methyl-1H-pyrazol-4-yl)-1H-indazol-5-yl)-3-(1-methylpiperidin-4-yl)-5,6-dihydroimidazo[1,5-a]pyrazine-7(8H)-carboxamide] | 0.022 µM | > 10 µM |
| CNC(=O)N1CCn2c(C3CCC(F)(F)CC3)nc(-c3cccc4cc(-c5cnc(C)s5)ncc34)c2C1 [Example 97, 3-(4,4-difluorocyclohexyl)-N-methyl-1-(3-(2-methylthiazol-5-yl)isoquinolin-8-yl)-5,6-dihydroimidazo[1,5-a]pyrazine-7(8H)-carboxamide] | 0.001 µM | 3.32 µM |
| CNC(=O)N1CCn2c(C3CC(F)(F)C3)nc(-c3c(F)ccc4cc(-c5cnc(C)s5)ncc34)c2C1 [Example 92, 3-(3,3-difluorocyclobutyl)-1-(7-fluoro-3-(2-methylthiazol-5-yl)isoquinolin-8-yl)-N-methyl-5,6-dihydroimidazo[1,5-a]pyrazine-7(8H)-carboxamide] | 0.01 µM | > 25 µM |
| CNC(=O)N1CCn2c(C3CC3)nc(-c3cccc4nc(-c5cnn(C)c5)c(C#N)cc34)c2C1 [Example 19, 1-(3-Cyano-2-(1-methyl-1H-pyrazol-4-yl)quinolin-5-yl)-3-cyclopropyl-N-methyl-5,6-dihydroimidazo[1,5-a]pyrazine-7(8H)-carboxamide] | 0.005 µM | > 25 µM |
| CNC(=O)N1CCn2c(C3CC(F)(F)C3)nc(-c3c(F)ccc4cc(-c5cn(C)nc5C)ncc34)c2C1 [Example 77, 3-(3,3-difluorocyclobutyl)-1-(3-(1,3-dimethyl-1H-pyrazol-4-yl)-7-fluoroisoquinolin-8-yl)-N-methyl-5,6-dihydroimidazo[1,5-a]pyrazine-7(8H)-carboxamide] | 0.045 µM | > 25 µM |
| CNC(=O)N1CCn2c(C3CC3)nc(-c3cccc4nc(N5CC6(COC6)C5)c(C#N)cc34)c2C1 [Example 102, 1-(3-cyano-2-(2-oxa-6-azaspiro[3.3]heptan-6-yl)quinolin-5-yl)-3-cyclopropyl-N-methyl-5,6-dihydroimidazo[1,5-a]pyrazine-7(8H)-carboxamide] | 0.019 µM | > 25 µM |
| CNC(=O)N1CCn2c(C3CC3)nc(-c3cccc4nc(-c5cnn(C)c5)c(C(F)(F)F)cc34)c2C1 [Example 62, 3-cyclopropyl-N-methyl-1-(2-(1-methyl-1H-pyrazol-4-yl)-3-(trifluoromethyl)quinolin-5-yl)-5,6-dihydroimidazo[1,5-a]pyrazine-7(8H)-carboxamide] | 0.005 µM | 13.5 µM |
| CNC(=O)N1CCn2c(C3CCOCC3)nc(-c3c(F)ccc4cc(-c5cn(C)nc5C)ncc34)c2C1 [Example 73, 1-(3-(1,3-dimethyl-1H-pyrazol-4-yl)-7-fluoroisoquinolin-8-yl)-N-methyl-3-(tetrahydro-2H-pyran-4-yl)-5,6-dihydroimidazo[1,5-a]pyrazine-7(8H)-carboxamide] | 0.04 µM | > 25 µM |
| CC(=O)N1CCn2c(C3CC3)nc(-c3ccnc4c3cc(-c3cnn(C)c3)n4C)c2C1 [Example 29, 1-(3-Cyclopropyl-1-(1-methyl-2-(1-methyl-1H-pyrazol-4-yl)-1H-pyrrolo[2,3-b]pyridin-4-yl)-5,6-dihydroimidazo[1,5-a]pyrazin-7(8H)-yl)ethan-1-one] | 0.324 µM | > 25 µM |
| CC(=O)N1CCn2c(C3CCN(C)CC3)nc(-c3ccc4c(c3)c(-c3cnn(C)c3)nn4C)c2C1 [Example 54, 1-(1-(1-methyl-3-(1-methyl-1H-pyrazol-4-yl)-1H-indazol-5-yl)-3-(1-methylpiperidin-4-yl)-5,6-dihydroimidazo[1,5-a]pyrazin-7(8H)-yl)ethan-1-one] | 0.141 µM | > 10 µM |
| CNC(=O)N1CCn2c(C3CC3)nc(-c3cccc4nc(N5CCOCC5)c(C#N)cc34)c2C1 [Example 24, 1-(3-Cyano-2-morpholinoquinolin-5-yl)-3-cyclopropyl-N-methyl-5,6-dihydroimidazo[1,5-a]pyrazine-7(8H)-carboxamide] | 0.006 µM | 9.11 µM |
| CC(=O)N1CCn2c(C3CC3)nc(N3CCCc4cc(-c5ccnc(N6CCOCC6)c5)ccc43)c2C1 [Example 112, 1-(3-cyclopropyl-1-(6-(2-morpholinopyridin-4-yl)-3,4-dihydroquinolin-1(2H)-yl)-5,6-dihydroimidazo[1,5-a]pyrazin-7(8H)-yl)ethan-1-one] | 0.27 µM | 21 µM |
